# Experimental data: paper PMC5775428, “Towards an experimental classification system for membrane active peptides” (Scientific Reports, 2018)
# Like-named read-outs stand apart in the source and are kept apart here.
# Columns and labels:
# [1] = system: Candida albicans; conditions: Candida albicans; for Minimum inhibitory concentration, Average: average of triplicates
# How it was run: (§1)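 MICs determined per CLSI M7-A10 (bacteria) and M27-A3 (yeasts) protocols, peptides tested at 0.5 to 256 μM. MIC taken as the lowest concentration with no cells seen by optical microscopy; three biological repeats with 2 technical replicates each.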
# [2] = system: Erwinia carotovora
# How it was run: (§2)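 Broth microdilution MICs followed CLSI M7-A10 for bacteria, with peptides tested at 0.5 to 256 μM. MIC was the lowest concentration at which no cells were seen by optical microscopy. Three biological repeats, each with two technical replicates.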
# [3] = system: Pseudomonas syringae pv. tabaci
# How it was run: as §2
# [4] = system: Bacillus subtilis; conditions: Bacillus subtilis; for Minimum inhibitory concentration, Average: average of triplicates
# How it was run: as §2
# [5] = system: Bacillus cereus
# How it was run: as §2
# [6] = system: Pseudomonas aeruginosa
# How it was run: as §2
# [7] = system: Staphylococcus aureus
# How it was run: as §2
# [8] = system: Xanthomonas campestris; conditions: for Minimum inhibitory concentration, Average: average of triplicates
# How it was run: as §2
# [9] = system: Cryptococcus neoformans; conditions: Cryptococcus neoformans; for Minimum inhibitory concentration, Average: average of triplicates
# How it was run: as §1
# [10] = system: Escherichia coli
# How it was run: as §2
# [11] = CLSI M27-A3, 0.5 to 256 μM tested, triplicate 1, also published in ref 7
sequence,measurement,setting,value
GKILKYLLYLLRKYANLIIR [Tc02],Minimum inhibitory concentration,[1]; [11],1 µM
same,"Minimum inhibitory concentration, Average",[1],1.0 µM
same,Minimum inhibitory concentration,[1]; triplicate 2,1 µM
same,Minimum inhibitory concentration,[1]; triplicate 3,1 µM
same,Minimum inhibitory concentration,"[2]; Erwinia carotovora, CLSI M7-A10, triplicate 1",16 µM
same,"Minimum inhibitory concentration, Average","[2]; Erwinia carotovora, average of triplicates",16.0 µM
same,Minimum inhibitory concentration,"[2]; Erwinia carotovora, triplicate 2",16 µM
same,Minimum inhibitory concentration,"[2]; Erwinia carotovora, triplicate 3",16 µM
same,Minimum inhibitory concentration,"[3]; Pseudomonas syringae pv. tabaci, CLSI M7-A10, triplicate 1",4 µM
same,"Minimum inhibitory concentration, Average","[3]; Pseudomonas syringae pv. tabaci, average of triplicates",4.0 µM
same,Minimum inhibitory concentration,"[3]; Pseudomonas syringae pv. tabaci, triplicate 2",4 µM
same,Minimum inhibitory concentration,"[3]; Pseudomonas syringae pv. tabaci, triplicate 3",4 µM
same,Minimum inhibitory concentration,"[4]; CLSI M7-A10, triplicate 1",4 µM
same,"Minimum inhibitory concentration, Average",[4],4.0 µM
same,Minimum inhibitory concentration,[4]; triplicate 2,4 µM
same,Minimum inhibitory concentration,[4]; triplicate 3,4 µM
same,Minimum inhibitory concentration,"[5]; Bacillus cereus, CLSI M7-A10, triplicate 1",16 µM
same,"Minimum inhibitory concentration, Average","[5]; Bacillus cereus, average of triplicates",13.3 µM
same,Minimum inhibitory concentration,"[5]; Bacillus cereus, triplicate 2",16 µM
same,Minimum inhibitory concentration,"[5]; Bacillus cereus, triplicate 3",8 µM
same,Minimum inhibitory concentration,"[6]; Pseudomonas aeruginosa, CLSI M7-A10, triplicate 1",16 µM
same,"Minimum inhibitory concentration, Average","[6]; Pseudomonas aeruginosa, average of triplicates",16.0 µM
same,Minimum inhibitory concentration,"[6]; Pseudomonas aeruginosa, triplicate 2",16 µM
same,Minimum inhibitory concentration,"[6]; Pseudomonas aeruginosa, triplicate 3",16 µM
same,Minimum inhibitory concentration,"[7]; Staphylococcus aureus, CLSI M7-A10, triplicate 1",8 µM
same,"Minimum inhibitory concentration, Average","[7]; Staphylococcus aureus, average of triplicates",8.0 µM
same,Minimum inhibitory concentration,"[7]; Staphylococcus aureus, triplicate 2",8 µM
same,Minimum inhibitory concentration,"[7]; Staphylococcus aureus, triplicate 3",8 µM
same,Minimum inhibitory concentration,"[8]; CLSI M7-A10, triplicate 1",16 µM
same,"Minimum inhibitory concentration, Average",[8],16.0 µM
same,Minimum inhibitory concentration,[8]; triplicate 2,16 µM
same,Minimum inhibitory concentration,[8]; triplicate 3,16 µM
same,Minimum inhibitory concentration,"[9]; CLSI M27-A3, triplicate 1",1 µM
same,"Minimum inhibitory concentration, Average",[9],1.0 µM
same,Minimum inhibitory concentration,[9]; triplicate 2,1 µM
same,Minimum inhibitory concentration,[9]; triplicate 3,1 µM
same,Minimum inhibitory concentration,"[10]; Escherichia coli, CLSI M7-A10, triplicate 1",8 µM
same,"Minimum inhibitory concentration, Average","[10]; Escherichia coli, average of triplicates",10.7 µM
same,Minimum inhibitory concentration,"[10]; Escherichia coli, triplicate 2",8 µM
same,Minimum inhibitory concentration,"[10]; Escherichia coli, triplicate 3",16 µM
IVNHLVKLFDKGLNSIVNLR [Tc05],Minimum inhibitory concentration,[1]; [11],128 µM
same,"Minimum inhibitory concentration, Average",[1],128.0 µM
same,Minimum inhibitory concentration,[1]; triplicate 2,128 µM
same,Minimum inhibitory concentration,[1]; triplicate 3,128 µM
same,Minimum inhibitory concentration,[2],512 µM
same,"Minimum inhibitory concentration, Average",[2],512.0 µM
same,Minimum inhibitory concentration,[3],512 µM
same,"Minimum inhibitory concentration, Average",[3],512.0 µM
same,Minimum inhibitory concentration,"[4]; CLSI M7-A10, triplicate 1",64 µM
same,"Minimum inhibitory concentration, Average",[4],64.0 µM
same,Minimum inhibitory concentration,[4]; triplicate 2,64 µM
same,Minimum inhibitory concentration,[4]; triplicate 3,64 µM
same,Minimum inhibitory concentration,[5],512 µM
same,"Minimum inhibitory concentration, Average",[5],512.0 µM
same,Minimum inhibitory concentration,[6],512 µM
same,"Minimum inhibitory concentration, Average",[6],512.0 µM
same,Minimum inhibitory concentration,[7],512 µM
same,"Minimum inhibitory concentration, Average",[7],512.0 µM
same,Minimum inhibitory concentration,"[8]; CLSI M7-A10, triplicate 1",512 µM
same,"Minimum inhibitory concentration, Average",[8],512.0 µM
same,Minimum inhibitory concentration,[8]; triplicate 2,512 µM
same,Minimum inhibitory concentration,[8]; triplicate 3,512 µM
same,Minimum inhibitory concentration,"[9]; CLSI M27-A3, triplicate 1",128 µM
same,"Minimum inhibitory concentration, Average",[9],128.0 µM
same,Minimum inhibitory concentration,[9]; triplicate 2,128 µM
same,Minimum inhibitory concentration,[9]; triplicate 3,128 µM
same,Minimum inhibitory concentration,[10],512 µM
same,"Minimum inhibitory concentration, Average",[10],512.0 µM
